System: L. major lysate proteins
Test: Multitargeted bead mixture chemoproteomics, single concentration competition, proteome-wide
Type: binding
Conditions: for fold change: vehicle control = 1

## Nc1nc2c(c(=O)[nH]1)N(C=O)C(CNc1ccc(C(=O)N[C@@H](CCC(=O)O)C(=O)O)cc1)CN2 (stereo partly drawn) [LEU, leucovorin]
Protein LMJF.28.0490 PROPIONYL-COA C[…] CHAIN, PUTATIVE
  fold change vs vehicle control: 1.09
Protein LMJF.28.0710 HYPOTHETICAL PROTEIN, CONSERVED (SNARE associated Golgi protein, putative)
  fold change: 0.76
Protein LMJF.28.0930 HYPOTHETICAL PROTEIN, CONSERVED
  fold change vs vehicle control: 0.9
Protein LMJF.28.0960 40S RIBOSOMAL PROTEIN S14
  fold change vs vehicle control: 1.06
Protein LMJF.28.1530 ATP DEPENDENT DEAD-BOX HELICASE, PUTATIVE
  fold change vs vehicle control: 0.95
Protein LMJF.28.1730, […]-ATP-ASE SUBUNIT 2, PUTATIVE
  fold change relative to vehicle control: 1.27
Protein LMJF.28.2430 VACUOLAR ATP SYNTHASE SUBUNIT B, PUTATIVE
  fold change vs vehicle control: 1.01
Protein LMJF.28.2770, HEAT-SHOCK PROTEIN HSP70, PUTATIVE
  fold change relative to vehicle control: 1.32
Protein LMJF.28.2910 GLUTAMATE DEHYDROGENASE, PUTATIVE
  fold change: 1.1
Protein LMJF.29.0120 […]-ATPASE SUBUNIT, PUTATIVE
  fold change vs vehicle control: 1.15
Protein LMJF.29.0620 ATP-BINDING CASSETTE PROTEIN SUBFAMILY A, MEMBER 10, PUTATIVE
  fold change: 0.8
Protein LMJF.29.0760 […] BI[…], PUTATIVE,HEAT SHOCK PROTEIN 90, PUTATIVE
  fold change vs vehicle control: 1.05
Protein LMJF.29.0850, HIGH MOBILITY GROUP PROTEIN HOMOLOG TDP-1, PUTATIVE
  fold change relative to vehicle control: 2.2
Protein LMJF.29.0940 HY[…], CONSERVED
  fold change vs vehicle control: 1.06
Protein LMJF.29.1160 TRYPAREDOXIN
  fold change vs vehicle control: 1.05
Protein LMJF.29.1240 HYPOTHETICAL PROTEIN, UNKNOWN FUNCTION
  fold change vs vehicle control: 0.99
Protein LMJF.29.1270 100 kDa heat shock protein (Hsp100)
  fold change vs vehicle control: 0.99
Protein LMJF.29.1310 CARNITINE/CHOLINE ACETYLTRANSFERASE, PUTATIVE
  fold change vs vehicle control: 0.93
Protein LMJF.29.1760, PAR[…] PROTEIN 1D, PUTATIVE
  fold change relative to vehicle control: 1.22
Protein LMJF.29.1780 D[…] PROTEIN, PUTATIVE
  fold change vs vehicle control: 1.01
Protein LMJF.29.2200 GTP-BINDING PROTEIN, PUTATIVE (dynamin-1-like protein)
  fold change: 0.99
Protein LMJF.29.2310 ENOYL-COA HYDRATASE/ISOMERASE-LIKE PROTEIN
  fold change: 0.93
Protein LMJF.29.2360 ASPARTYL AMINOPEPTIDASE, PUTATIVE,METALLO-PEPTIDASE, CLAN MH, FAMILY M20
  fold change vs vehicle control: 1.08
Protein LMJF.29.2860 40S RIBOSOMAL PROTEIN S19-LIKE PROTEIN
  fold change: 1.01
Protein LMJF.30.0580 HYPOTHETICAL PROTEIN, CONSERVED (AMP-binding enzyme, putative)
  fold change: 0.99
Protein LMJF.30.0850 SURFACE PROTEIN AMASTIN, PUTATIVE
  fold change: 0.99
Protein LMJF.30.1250 PYRIDOXAL KINASE, PUTATIVE
  fold change vs vehicle control: 1.08
Protein LMJF.30.2580 RETICULON DOMAIN PROTEIN, 22 KDA POTENTIALLY AGGRAVATING PROTEIN (PAPLE22)
  fold change vs vehicle control: 0.97
Protein LMJF.30.3090, HY[…], CONSERVED (RNA-binding protein 42, putative)
  fold change relative to vehicle control: 1.16
Protein LMJF.30.3240 GLUTAMYL-TRNA SYNTHETASE, PUTATIVE
  fold change vs vehicle control: 0.9
Protein LMJF.30.3380 PAS-DOMAIN CONTAINING PHOSPHOGLYCERATE KINASE, PUTATIVE
  fold change: 0.97
Protein LMJF.30.3430 HYPOTHETICAL PROTEIN, CONSERVED (protein mkt1, putative)
  fold change: 0.93
Protein LMJF.30.3520 S-ADENOSYLMETHIONINE SYNTHETASE
  fold change: 0.9
Protein LMJF.30.3570 ZINC FINGER-DOMAIN PROTEIN, PUTATIVE
  fold change: 0.81
Protein LMJF.31.0080, HY[…], CONSERVED
  fold change relative to vehicle control: 1.25
Protein LMJF.31.0340 AMINO ACID PERMEASE, PUTATIVE
  fold change vs vehicle control: 1.03
Protein LMJF.31.1130 N-ACYL-L-AMINO ACID AMIDOHYDROLASE, PUTATIVE
  fold change: 1
Protein LMJF.31.1640 THIOLASE PROTEIN-LIKE PROTEIN
  fold change vs vehicle control: 1.02
Protein LMJF.31.2150, PROSTAGLANDIN F2-ALPHA SYNTHASE/D-ARABINOSE DEHYDROGENASE
  fold change relative to vehicle control: 1.25
Protein LMJF.31.2250 3,2-TRANS-ENOYL-COA ISOMERASE, MIT[…], PUTATIVE
  fold change vs vehicle control: 0.92
Protein LMJF.32.0750 RNA BINDING PROTEIN, PUTATIVE
  fold change vs vehicle control: 1.05
Protein LMJF.32.1060 DYNEIN, PUTATIVE
  fold change vs vehicle control: 1.02
Protein LMJF.32.1820, IRON […], PUTATIVE
  fold change relative to vehicle control: 1.22
Protein LMJF.32.2320, C-14 STEROL REDUCTASE, PUTATIVE
  fold change relative to vehicle control: 1.12
Protein LMJF.32.3870 MYOSIN XXI
  fold change vs vehicle control: 0.9
Protein LMJF.33.0240, THIOL-DEPENDENT REDUCTASE 1
  fold change relative to vehicle control: 1.13
Protein LMJF.33.0280 HYPOTHETICAL PROTEIN, CONSERVED
  fold change: 0.89
Protein LMJF.33.0890, HY[…], CONSERVED
  fold change relative to vehicle control: 0.98
Protein LMJF.33.1070 HY[…], UNKNOWN FUNCTION
  fold change vs vehicle control: 1.03
Protein LMJF.33.1330 CYSTEINE CONJUGATE BETA-LYASE, AMINOTRANSFERASE- LIKE PROTEIN
  fold change vs vehicle control: 0.87
Protein LMJF.33.1590 HY[…], CONSERVED (3-ketoacyl-CoA reductase, putative)
  fold change: 1.46
Protein LMJF.33.1860, ATP-BINDING CASSETTE PROTEIN SUBFAMILY D, MEMBER 3, PUTATIVE
  fold change relative to vehicle control: 1.04
Protein LMJF.33.2340, SUCCINYL-COA:3-KETOACID-COENZYME A TRANSFERASE, MIT[…], PUTATIVE
  fold change relative to vehicle control: 1.09
Protein LMJF.33.2440, HY[…], CONSERVED
  fold change relative to vehicle control: 1.07
Protein LMJF.33.2540, CARBOXYPEPTIDASE, PUTATIVE,METALLO-PEPTIDASE, CLAN MA(E), FAMILY M32
  fold change relative to vehicle control: 1.95
Protein LMJF.33.3150 40S RIBOSOMAL PROTEIN S13, PUTATIVE
  fold change: 0.89
Protein LMJF.34.0140, MALATE DEHYDROGENASE
  fold change relative to vehicle control: 1.53
Protein LMJF.34.0440 RIBOSOMAL PROTEIN S25
  fold change vs vehicle control: 1.25
Protein LMJF.34.2580, HY[…], CONSERVED (ALBA-domain protein 3)
  fold change relative to vehicle control: 1.01
Protein LMJF.34.3250, PUTATIVE PYRUVATE/INDOLE-PYRUVATE CARBOXYLASE, PUTATIVE
  fold change relative to vehicle control: 1.08
Protein LMJF.34.4370 20S PROTEASOME BETA 7 SUBUNIT, (PUTATIVE)
  fold change: 0.92
Protein LMJF.34.4620 HYPOTHETICAL PROTEIN, CONSERVED
  fold change vs vehicle control: 0.95
Protein LMJF.35.0070 PROHIBITIN, PUTATIVE
  fold change: 0.93
Protein LMJF.35.0360 ENOYL-COA HYDRATASE/ISOMERASE FAMILY PROTEIN, CONSERVED
  fold change vs vehicle control: 1.24
Protein LMJF.35.0370 ATP-DEPENDENT DEAD-BOX RNA HELICASE, PUTATIVE
  fold change: 0.97
Protein LMJF.35.0420 40S RIBOSOMAL PROTEIN S3A, PUTATIVE
  fold change: 1.03
